Results from publication PMC8397634 (Journal of Natural Medicines, 2021).
Where “and” joins values, the source holds several entries; their conditions need not be identical. Equal entries are not always repeated. Entries after “also recorded” stand apart in the source; their conditions may differ. Where two headings read alike, the source gives them in different places.

Experiments:
muscle-type nAChR = target: T1, muscle-type nAChR (Homo sapiens, UniProt P02708+P07510+Q07001); experiment: Muscle-type nAChR radioligand binding (target profiling); details: 10 µM single concentration; effect greater than 50% considered significant
T1 construct: TE671 cells; host or cells: TE671 cells (endogenous)
T1 sequence (P02708 21-457): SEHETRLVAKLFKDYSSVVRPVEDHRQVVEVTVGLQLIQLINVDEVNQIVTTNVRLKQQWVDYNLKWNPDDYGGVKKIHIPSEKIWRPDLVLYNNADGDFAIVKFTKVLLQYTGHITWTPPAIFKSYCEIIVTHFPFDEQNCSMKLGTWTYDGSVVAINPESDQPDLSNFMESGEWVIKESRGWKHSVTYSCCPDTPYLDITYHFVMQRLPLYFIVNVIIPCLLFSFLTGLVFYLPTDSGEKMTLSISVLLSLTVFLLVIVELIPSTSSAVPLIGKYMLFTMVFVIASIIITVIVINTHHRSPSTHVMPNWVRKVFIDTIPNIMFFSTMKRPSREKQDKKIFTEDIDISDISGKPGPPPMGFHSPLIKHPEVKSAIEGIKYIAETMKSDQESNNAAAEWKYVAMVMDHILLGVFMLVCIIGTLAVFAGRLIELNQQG
T1 sequence (Q07001 22-517): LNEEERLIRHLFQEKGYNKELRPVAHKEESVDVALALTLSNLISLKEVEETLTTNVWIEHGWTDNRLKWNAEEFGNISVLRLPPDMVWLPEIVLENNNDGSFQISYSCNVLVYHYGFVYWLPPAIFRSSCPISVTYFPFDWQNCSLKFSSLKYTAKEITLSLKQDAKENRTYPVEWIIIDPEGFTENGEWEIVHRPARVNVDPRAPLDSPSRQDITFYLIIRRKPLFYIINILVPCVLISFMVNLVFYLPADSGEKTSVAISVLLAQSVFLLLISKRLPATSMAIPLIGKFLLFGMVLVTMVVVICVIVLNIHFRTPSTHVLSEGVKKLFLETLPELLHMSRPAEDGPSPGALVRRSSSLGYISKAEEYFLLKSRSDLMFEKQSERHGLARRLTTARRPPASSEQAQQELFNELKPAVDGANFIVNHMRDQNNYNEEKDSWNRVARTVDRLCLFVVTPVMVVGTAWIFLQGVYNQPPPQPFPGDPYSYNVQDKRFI
T1 sequence (P07510 23-517): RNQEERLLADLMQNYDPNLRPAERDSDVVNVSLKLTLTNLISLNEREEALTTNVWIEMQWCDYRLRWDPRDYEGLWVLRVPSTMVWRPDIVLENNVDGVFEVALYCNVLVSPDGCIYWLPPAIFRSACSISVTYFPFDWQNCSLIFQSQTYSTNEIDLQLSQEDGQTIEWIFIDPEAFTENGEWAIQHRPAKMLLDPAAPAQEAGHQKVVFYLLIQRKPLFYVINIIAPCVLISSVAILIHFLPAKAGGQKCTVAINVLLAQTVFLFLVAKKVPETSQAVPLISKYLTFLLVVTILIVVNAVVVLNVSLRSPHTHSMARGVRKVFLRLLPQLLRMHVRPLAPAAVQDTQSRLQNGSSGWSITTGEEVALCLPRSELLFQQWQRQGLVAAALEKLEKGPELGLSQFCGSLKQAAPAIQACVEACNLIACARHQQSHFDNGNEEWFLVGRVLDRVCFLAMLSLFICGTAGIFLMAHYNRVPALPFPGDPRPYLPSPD
Protocol: (§1) All binding and functional assays for molecular target characterization were conducted by Eurofins Cerep SA (Celle-Lévescault, France) and Eurofins Panlabs Discovery Services Taiwan, Ltd. (New Taipei City, Taiwan) using their standard in vitro binding and functional assays (Online Source 2). The radioligand displacement binding assays employed the gold-standard filtration method using membrane preparations from stable cell lines expressing human or rodent target proteins to determine the interaction of the compounds with specific receptors, channels, and transporters. For this purpose, the competitive binding of test compounds against a [^125I]-, [^3H]-, or [^35S]-labeled agonist and/or antagonist was determined. The specific list of radiolabeled ligands and experimental conditions are summarized in Online Source 2. A single concentration of each compound (10 µM in 0.1% DMSO) was used for the screen. […] Negative values were considered to be an artifact arising from, for example, compounds interfering with the assay readout.
(§2) Assay Source Ligand Conc. Kd Non Specific Incubation Detection Bibl.

[1] = Brain bioavailability assay in zebrafish (UPLC-HRMS of brain homogenate); assay type: in vivo, Danio rerio; details: zebrafish brain after 20-min exposure, linear relationship assumed, mean ± SEM; for concentration at 20 min: both sexes, zebrafish (Danio rerio), 1 mg/L, read-out: Relative brain level per 1 mg/L compound
Protocol: Four fish (2 males and 2 females) per compound were used to determine the brain bioavailability of the compounds. Immediately after the 20-min compound treatment, the zebrafish were rinsed briefly to remove excessive compound on their body and terminated with 250 mg/L tricaine (CAS No. 886-86-2; Sigma). The fish were decapitated at the level of the gills using a surgical knife. The head was turned dorsal side down, and soft tissue was removed from the ventral side of the skull until the base of the skull was exposed. The skull was broken open and the bone from the ventral side of the brain was removed. The brain was then placed in a microcentrifuge tube, weighed, snap-frozen in liquid nitrogen, and stored at – 80 °C until the analysis.
Briefly, on the day of analysis, the brain samples were defrosted, resuspended in a methanol solution (2:1 [v/v] methanol:MilliQ water), and homogenized with vigorous agitation and ultrasonication (5 min each). The homogenate was centrifuged at 15,000 × rpm for 10 min, and the supernatant was analyzed using a UPLC-Q Exactive Orbitrap-HRMS system (Thermo Fisher Scientific™, Bremen, Germany). Chromatographic separation was achieved on a Synergi™ 4-µm Hydro-RP 80 Å, L.C. Column (250 × 4.6 mm; Phenomenex Inc., Torrance, CA, USA) with 0.1% formic acid in water (mobile phase A) and 0.1% formic acid in acetonitrile (mobile phase B). A gradient method at a 500 µL/min flow rate was applied as follows: (1) 5% B for 1 min, and (2) increase to 95% B over 7 min and hold for 2 min. The injection volume was 5 μL. The mass spectrometer was operated in electrospray positive mode (ESI, Thermo Fisher Scientific), while data acquisition was performed using the parallel reaction monitoring (PRM) and full scan modes. The source settings were set as follows: sheath gas flow rate = 60 psi; aux gas flow rate = 20 arbitrary units; spray voltage = 3.5 kV; capillary temperature = 280 °C; and sweep gas flow rate = 1. The full scan mode parameters were set as follows: resolution = 35,000 FWHM at 200 m/z; AGC target = 1E6; maximum injection time = 110 ms; and scan range = 100–350 m/z. The chromatographic and Orbitrap MS parameters for PRM analysis were the same as those in the full scan mode, except for: AGC target = 2E5; maximum IT = 60 ms; and resolution = 17,500 FWHM at 200 m/z. The XCalibur™ v4.0.27.19 software (Thermo Fisher Scientific) and TraceFinder™ v4.1 Forensic (Thermo Fisher Scientific, San José, CA, USA) were used for system control and data processing, respectively. The Q Exactive 2.8 SP 1 software (Thermo Fisher Scientific) was used to control the mass spectrometer.

[2] = tested on: other molecular targets (175 in vitro binding and enzymatic assays); experiment: In vitro molecular target profiling (175 binding and enzymatic assays); details: 10 µM single concentration; 175 assays; effect greater than 50% considered significant
Protocol: as §1
3.1. Experimental Conditions
In Vitro Pharmacology: Binding Assays
as §2

α4β2 nAChRs [3] = target: T2, α4β2 nAChRs (Homo sapiens, UniProt P17787+P43681); experiment: In vitro α4β2 nAChR radioligand displacement binding assay; parameters: host or cells: SH-SY5Y cells (human recombinant), membrane preparation; details: for Binding to α4β2 nAChR in target profiling: 10 µM single concentration, effect greater than 50% considered significant
T2 sequence (P43681 29-627 limits assumed): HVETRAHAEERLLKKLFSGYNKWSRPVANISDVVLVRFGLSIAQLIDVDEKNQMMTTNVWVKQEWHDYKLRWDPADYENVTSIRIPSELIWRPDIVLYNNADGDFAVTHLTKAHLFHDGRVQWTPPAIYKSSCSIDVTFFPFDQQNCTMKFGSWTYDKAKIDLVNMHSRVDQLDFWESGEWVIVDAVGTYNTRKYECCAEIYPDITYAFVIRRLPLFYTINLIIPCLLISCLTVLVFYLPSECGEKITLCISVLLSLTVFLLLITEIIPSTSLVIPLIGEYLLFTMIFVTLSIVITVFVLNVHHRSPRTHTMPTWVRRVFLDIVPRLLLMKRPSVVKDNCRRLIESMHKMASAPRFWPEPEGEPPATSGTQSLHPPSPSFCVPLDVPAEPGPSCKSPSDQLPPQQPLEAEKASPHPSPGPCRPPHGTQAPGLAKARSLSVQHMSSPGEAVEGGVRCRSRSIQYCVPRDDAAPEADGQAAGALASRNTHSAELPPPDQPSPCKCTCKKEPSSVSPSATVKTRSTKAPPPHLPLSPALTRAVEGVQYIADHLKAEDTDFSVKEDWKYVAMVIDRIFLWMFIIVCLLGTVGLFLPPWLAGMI
T2 sequence (P17787 26-502): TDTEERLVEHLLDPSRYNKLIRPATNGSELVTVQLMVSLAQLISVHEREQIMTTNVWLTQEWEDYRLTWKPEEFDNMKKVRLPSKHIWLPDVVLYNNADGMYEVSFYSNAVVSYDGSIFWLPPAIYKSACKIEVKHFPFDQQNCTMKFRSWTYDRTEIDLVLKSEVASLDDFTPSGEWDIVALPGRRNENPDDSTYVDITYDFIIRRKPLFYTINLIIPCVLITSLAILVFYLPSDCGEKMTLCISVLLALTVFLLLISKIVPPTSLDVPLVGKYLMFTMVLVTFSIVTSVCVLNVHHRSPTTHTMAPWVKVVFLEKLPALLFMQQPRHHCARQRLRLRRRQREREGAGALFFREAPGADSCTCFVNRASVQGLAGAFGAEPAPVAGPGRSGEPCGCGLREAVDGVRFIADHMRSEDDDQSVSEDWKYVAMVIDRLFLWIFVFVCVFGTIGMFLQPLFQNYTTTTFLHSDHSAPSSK
Protocol: as §1, §2

[4] = tested on: zebrafish (Danio rerio; strain AB); details: for Time spent at the bottom of the tank during NTT / anxiolytic-like effect: 30 mg/L
Protocol: The NTT conditions closely matched the most commonly used conditions described by. In brief, adult male and female wild-type zebrafish were treated with the compounds for 20 min in a final volume of 50 mL in a 250-mL treatment beaker, one fish at a time. The fish were briefly rinsed in fresh system water, and then immediately transferred to a trapezoidal tank (14.6-cm height × 5.5-cm width × 27.9-cm top length and × 23.6-cm bottom length) filled with 1.5 L system water. The behavior of the fish was monitored for the next 5 min using the Noldus EthoVision XT system (Wageningen, Netherlands), with the camera placed approximately 1 m from the test tank. The tanks were uniformly illuminated from above at approximately 200 lx, reported to be the optimal illumination condition for NTT [23]. Background noise was kept at a minimum during the test. All experimental parameters were monitored closely and kept as consistent as possible throughout the study. The part of the tank filled with water (11.5-cm height) was virtually divided into top, center, and bottom of equal heights (approximately 3.8 cm per segment) for the analyses. The average time spent at the top and bottom portions of the tank was analyzed to determine the anxiety-like behavior of fish. The average total distance traveled and freezing time (as defined by a complete cessation of movement except for gills and eyes) were calculated to determine the effects of the compounds on the general behavior of fish. The analyses were conducted for 1-min time bins. To account for any day-to-day variability in fish behavior, fish treated with vehicle were tested on the same day as the compounds. […] A minimum of 12 fish (6 females and 6 males) per condition were used for the study. The actual sample size per condition is indicated in Online Resource 1. […] The experimenters were blind to the test conditions. The NTT was validated with buspirone, a clinical anxiolytic drug, as previously described.
If not, the concentration was reduced until no obvious signs of tolerability problems were observed. […] The concentrations were calculated based on the free base molecular weight.
Two-way repeated measures analysis of variance (ANOVA) with Dunnett post hoc was used for the 1-min binned analysis of the zebrafish NTT data. Treatment was one factor, and time was the second factor. […] Thus, male and female datasets were combined for the final analyses. […] The EC50 values were determined by applying the nonlinear regression analysis. All analyses were conducted using GraphPad Prism v8.2.1 (GraphPad Software, San Diego, CA, USA).

α4β2 nAChRs [5] = target: T2, α4β2 nAChRs; experiment: In vitro nAChR functional assay (automated patch-clamp, CHO cells); assay type: cell-based; details: for Emax: CHO, read-out: % activation of α4β2 nAChR (normalized to nicotine)
Protocol: Electrophysiological responses were recorded using an automated patch-clamp Patchliner Octo® system (Nanion Technologies, Munich, Germany) equipped with two EPC-10 Quadro patch-clamp amplifiers (HEKA Elektronik, Lambrecht, Germany) as described previously. Chinese hamster ovarian (CHO) cells stably expressing human α4β2 nAChRs (Charles River Laboratories, Wilmington, MA, USA) were used. All experiments were performed at room temperature (24 °C) and repeated at least three times. Data were analyzed using Patchmaster software (HEKA Elektronik). Offline data analysis was performed in Apache OpenOffice™ (v4.1.2; […]). Igor Pro software (v6.2.2.2; WaveMetrics, Lake Oswego, OR, USA) was used to determine EC50 values. […] The average values were then fitted to the Hill equation: I=Baseline+X^∧nH(Imax-Baseline)/X^∧nH+EC50^∧nH, where I is the current response, Baseline is the minimal current response, X is the agonist concentration, nH is the Hill coefficient, Imax is the maximal current, and EC50 is the agonist concentration producing half-maximal activation. […]

α7 nAChR = details: cited from earlier work; for α7 nAChR agonist activity: ref 2 (Alijevic, et al.)
[6] = other: immersion in compound solution (waterborne exposure)
[7] = all concentrations tested, 20-min treatment, 5-min test, vs vehicle control
[8] = CHO cells stably expressing human α4β2 nAChRs, patch clamp, 24 °C, mean ± SEM (Fig. 1), read-out: α4β2 nAChR EC50

CN1CCC[C@H]1c1cccnc1 [Nicotine, (–)-nicotine, reference compound]
Binding to muscle-type nAChR in target profiling (muscle-type nAChR): specific binding | concentration at 20 min ([1]; in vivo): 700 ± 140 ng/g | Binding to or regulation of other molecular targets [2]: did not bind or regulate the activities of other molecular targets | Binding to α4β2 nAChR in target profiling (α4β2 nAChRs [3]): specific binding | Concentration effective in reducing anxiety-like behavior in NTT ([4]; in vivo): 0.3 mg/L | % activation of α4β2 nAChR (normalized to nicotine) (α4β2 nAChRs [5]): 100% | α7 nAChR agonist activity (α7 nAChR): weak α7 nAChR agonist

CC(=O)OCC[N+](C)(C)C [Acetylcholine, reference compound]
concentration at 20 min [1, 6]: 20 ± 10 ng/g | Time spent at the bottom of the tank during NTT [4, 7]: no effect | % activation of α4β2 nAChR (normalized to nicotine) (α4β2 nAChRs [5]): 100%

c1cnc2cc3c(cc2n1)[C@@H]1CNC[C@H]3C1 [Varenicline, reference compound]
concentration at 20 min [1, 6]: 450 ± 160 ng/g

CN1C(=O)CC[C@H]1c1cccnc1 [Cotinine, (–)-cotinine]
Binding to muscle-type nAChR in target profiling (muscle-type nAChR): specific binding | concentration at 20 min [1, 6]: 20 ± 10 ng/g | Relative brain level per 1 mg/L compound [1]: less than 0.1 ng/mg tissue | Binding to or regulation of other molecular targets [2]: did not bind or regulate the activities of other molecular targets | Binding to α4β2 nAChR in target profiling (α4β2 nAChRs [3]): specific binding | IC50 (α4β2 nAChRs [3]; n = 3, read-out: α4β2 nAChR IC50 (binding)): 9.9 µM | Time spent at the bottom of the tank during NTT ([4]; 100 mg/L, 20-min treatment): reduced the overall time spent at the bottom | Concentration needed for anxiolytic-like effect relative to nicotine ([4]; NTT): > 300 fold | EC50 (α4β2 nAChRs [5]; [8]): 85.3 µM | Emax (α4β2 nAChRs [5]): 59%

O=C(c1ccc(Cl)o1)N1CC2CNCC2C1 (stereo not drawn) [AZD1446, 3-(5-chloro-2-furoyl)-3,7-diazabicyclo[3.3.0]octane, reference compound]
Relative brain level per 1 mg/L compound [1]: could not be detected; also recorded: at the limit of detection; also recorded: No value^d | Time spent at the bottom of the tank during NTT / anxiolytic-like effect ([4]; 20-min treatment): decreased the time spent at the bottom at 2 and 4 min | Time spent at the bottom of the tank during NTT ([4]; 100 mg/L, 20-min treatment): decreased the time spent at the bottom for the first 2 min | Time spent at the top of the tank during NTT ([4]; 30 and 100 mg/L, 20-min treatment): increased the time spent at the top | Size of the reduction of anxiety-like behavior in NTT ([4]; lower two concentrations (30 and 100 mg/L)): ~ 10% | EC50 (α4β2 nAChRs [5]; [8]): 7.9 µM and < 8 µM | Emax (α4β2 nAChRs [5]): 100%

O=C1CC2(CCCC2)CC(=O)N1CCCCN1CCN(c2ncccn2)CC1 [Buspirone, buspirone, reference compound]
Time spent at the bottom of the tank during NTT / anxiolytic-like effect ([4]; 20-min treatment): consistent anxiolytic-like effect across all time points | Freezing response during NTT ([4]; 100 mg/L): increased the freezing response at 1, 2, and 5 min | Total distance traveled during NTT ([4]; 100 mg/L): reduced the total distance traveled at 1, 4, and 5 min | Time spent at the bottom of the tank during NTT [4, 7]: either reduced the time spent on the bottom or increased the time spent on the top at multiple time points

CNCC/C=C/c1cccnc1 [Metanicotine, metanicotine]
concentration at 20 min ([1]; in vivo): 70 ± 10 ng/g | Relative brain level per 1 mg/L compound [1]: less than 0.1 ng/mg tissue | Time spent at the bottom of the tank during NTT [4, 7]: no significant effect | Emax (α4β2 nAChRs [5]): 100% | EC50 (α4β2 nAChRs [5]; α4β2 nAChR EC50): 19.5 ± 6.4 µM

CN1CC=CC[C@H]1c1cccnc1 [Methylanatabine, (S)-N-methylanatabine]
concentration at 20 min ([1]; in vivo): 1390 ± 560 ng/g | Relative brain level per 1 mg/L compound [1]: ~1 ng/mg tissue | IC50 (α4β2 nAChRs [3]): 0.891 µM | Concentration effective in reducing anxiety-like behavior in NTT ([4]; 20-min treatment): 10 mg/L | Time spent at the bottom of the tank during NTT ([4]; highest concentration tested (10 mg/L), 20-min treatment): anxiolytic-like effect | EC50 (α4β2 nAChRs [5]; [8]): < 8 µM | Emax (α4β2 nAChRs [5]): 26% | EC50 (α4β2 nAChRs [5]; α4β2 nAChR EC50): 6.2 µM

c1cncc([C@@H]2CCCCN2)c1 [Anabasine, ( +)-Anabasine]
concentration at 20 min ([1]; in vivo): 230 ± 70 ng/g | Time spent at the bottom of the tank during NTT [4, 7]: no significant effect | Emax (α4β2 nAChRs [5]): 7% | effectiveness in activating α4β2 nAChRs in vitro (α4β2 nAChRs [5]; preliminary data): 8 ± 4% | EC50 (α4β2 nAChRs [5]; α4β2 nAChR EC50, CHO cells stably expressing human α4β2 nAChRs, patch clamp, 24 °C, mean ± SEM (Fig. 1)): < 8 µM and 0.9 µM | α7 nAChR activation relative to maximum receptor activation by nicotine or anatabine (α7 nAChR): approximately a third | α7 nAChR agonist activity (α7 nAChR): weak α7 nAChR agonist

( ±)-nornicotine
Time spent at the bottom of the tank during NTT [4, 7]: no significant effect | % activation of α4β2 nAChR (normalized to nicotine) (α4β2 nAChRs [5]): 44%
